Measurements published in the NIST ThermoML archive (doi:10.1021/je060184i).
Numbers after ± are expanded uncertainties.

How the values were obtained:
[1] = Liquid, Closed cell (Static) method
[2] = excess molar enthalpy (molar enthalpy of mixing); xn = mol fraction of the nth substance listed; details: 298.15 K, 101 kPa, Liquid, Flow calorimetry

SMILES | vapor or sublimation pressure ([1]; 273.15 K) [kPa] | vapor or sublimation pressure ([1]; 283.15 K) [kPa] | vapor or sublimation pressure ([1]; 293.15 K) [kPa] | vapor or sublimation pressure ([1]; 298.15 K) [kPa] | vapor or sublimation pressure ([1]; 303.15 K) [kPa] | vapor or sublimation pressure ([1]; 313.15 K) [kPa] | vapor or sublimation pressure ([1]; 323.15 K) [kPa] | vapor or sublimation pressure ([1]; 333.15 K) [kPa] | vapor or sublimation pressure ([1]; 343.15 K) [kPa] | vapor or sublimation pressure ([1]; 353.15 K) [kPa] | vapor or sublimation pressure ([1]; 363.15 K) [kPa] | further results
C1CCCCC1 [cyclohexane] | 3.73 ± 0.03 | 6.357 ± 0.043 | 10.37 ± 0.064 | 13.04 ± 0.078 | 16.26 ± 0.096 | 24.65 ± 0.14 | 36.24 ± 0.2 | 51.85 ± 0.28 | 72.39 ± 0.39 | 98.85 ± 0.53 | 132.33 ± 0.71 | vapor or sublimation pressure ([1]; 263.15 K): 2.082 ± 0.023 kPa
CCCCCCC [heptane] | 1.531 ± 0.02 | 2.76 ± 0.025 | 4.736 ± 0.034 | 6.104 ± 0.04 | 7.787 ± 0.049 | 12.32 ± 0.07 | 18.85 ± 0.1 | 27.99 ± 0.15 | 40.43 ± 0.21 | 56.99 ± 0.29 | 78.59 ± 0.4 | –
C=CCCCC [hex-1-ene] | 7.687 ± 0.051 | 12.64 ± 0.076 | 19.98 ± 0.12 | 24.77 ± 0.14 | 30.46 ± 0.17 | 44.98 ± 0.25 | 64.6 ± 0.35 | 90.44 ± 0.49 | 123.79 ± 0.67 | 165.99 ± 0.89 | 218.5 ± 1.2 | –
C=CCCCC [hex-1-ene] + CCCOC(C)=O | – | – | – | – | – | – | – | – | – | – | – | excess molar enthalpy ([2]; x2 = 0.0943): 0.259 ± 0.01 kJ/mol; excess molar enthalpy ([2]; x2 = 0.2122): 0.475 ± 0.011 kJ/mol; excess molar enthalpy ([2]; x2 = 0.3238): 0.59 ± 0.011 kJ/mol; excess molar enthalpy ([2]; x2 = 0.418): 0.631 ± 0.011 kJ/mol; excess molar enthalpy ([2]; x2 = 0.4609): 0.637 ± 0.011 kJ/mol; excess molar enthalpy ([2]; x2 = 0.4822): 0.635 ± 0.011 kJ/mol; excess molar enthalpy ([2]; x2 = 0.5032): 0.633 ± 0.011 kJ/mol; excess molar enthalpy ([2]; x2 = 0.5241): 0.628 ± 0.011 kJ/mol; excess molar enthalpy ([2]; x2 = 0.5449): 0.62 ± 0.011 kJ/mol; excess molar enthalpy ([2]; x2 = 0.6178): 0.581 ± 0.011 kJ/mol; excess molar enthalpy ([2]; x2 = 0.7186): 0.489 ± 0.011 kJ/mol; excess molar enthalpy ([2]; x2 = 0.8117): 0.366 ± 0.011 kJ/mol; excess molar enthalpy ([2]; x2 = 0.9076): 0.199 ± 0.01 kJ/mol
CCCOC(C)=O [propyl ethanoate] | 1.006 ± 0.018 | 1.909 ± 0.022 | 3.43 ± 0.029 | 4.514 ± 0.034 | 5.875 ± 0.041 | 9.645 ± 0.06 | 15.25 ± 0.09 | 23.33 ± 0.13 | 34.64 ± 0.19 | 50.07 ± 0.28 | 70.64 ± 0.38 | vapor or sublimation pressure ([1]; 263.15 K): 0.4981 ± 0.01 kPa
CCCOC(C)=O [propyl ethanoate] + C1CCCCC1 | – | – | – | – | – | – | – | – | – | – | – | excess molar enthalpy ([2]; x1 = 0.1031): 0.532 ± 0.011 kJ/mol; excess molar enthalpy ([2]; x1 = 0.1888): 0.814 ± 0.012 kJ/mol; excess molar enthalpy ([2]; x1 = 0.2926): 1.02 ± 0.013 kJ/mol; excess molar enthalpy ([2]; x1 = 0.3829): 1.11 ± 0.013 kJ/mol; excess molar enthalpy ([2]; x1 = 0.4249): 1.12 ± 0.013 kJ/mol; excess molar enthalpy ([2]; x1 = 0.4667): 1.12 ± 0.013 kJ/mol; excess molar enthalpy ([2]; x1 = 0.4876): 1.12 ± 0.013 kJ/mol; excess molar enthalpy ([2]; x1 = 0.5084): 1.11 ± 0.013 kJ/mol; excess molar enthalpy ([2]; x1 = 0.5827): 1.05 ± 0.013 kJ/mol; excess molar enthalpy ([2]; x1 = 0.6881): 0.9 ± 0.012 kJ/mol; excess molar enthalpy ([2]; x1 = 0.7883): 0.682 ± 0.011 kJ/mol; excess molar enthalpy ([2]; x1 = 0.8945): 0.377 ± 0.011 kJ/mol
CCCOC(C)=O [propyl ethanoate] + CCCCCCC | – | – | – | – | – | – | – | – | – | – | – | excess molar enthalpy ([2]; x1 = 0.1087): 0.504 ± 0.011 kJ/mol; excess molar enthalpy ([2]; x1 = 0.1348): 0.599 ± 0.011 kJ/mol; excess molar enthalpy ([2]; x1 = 0.2399): 0.894 ± 0.012 kJ/mol; excess molar enthalpy ([2]; x1 = 0.3594): 1.08 ± 0.013 kJ/mol; excess molar enthalpy ([2]; x1 = 0.457): 1.14 ± 0.013 kJ/mol; excess molar enthalpy ([2]; x1 = 0.5004): 1.14 ± 0.013 kJ/mol; excess molar enthalpy ([2]; x1 = 0.5217): 1.14 ± 0.013 kJ/mol; excess molar enthalpy ([2]; x1 = 0.5427): 1.13 ± 0.013 kJ/mol; excess molar enthalpy ([2]; x1 = 0.5634): 1.11 ± 0.013 kJ/mol; excess molar enthalpy ([2]; x1 = 0.5838): 1.1 ± 0.013 kJ/mol; excess molar enthalpy ([2]; x1 = 0.6544): 1.02 ± 0.013 kJ/mol; excess molar enthalpy ([2]; x1 = 0.7495): 0.846 ± 0.012 kJ/mol; excess molar enthalpy ([2]; x1 = 0.8346): 0.628 ± 0.011 kJ/mol; excess molar enthalpy ([2]; x1 = 0.92): 0.338 ± 0.011 kJ/mol; excess molar enthalpy ([2]; x1 = 0.9526): 0.207 ± 0.01 kJ/mol
